# Target: T1, HMG-CoA reductase (Rattus norvegicus, UniProt P51639)
# T1 construct: the supernatant was ultracentrifuged (100,000×g for 60 minutes) to obtain microsomal precipitates; from tissue; host or cells: liver microsomes of treated rats
# T1 sequence (P51639 1-887): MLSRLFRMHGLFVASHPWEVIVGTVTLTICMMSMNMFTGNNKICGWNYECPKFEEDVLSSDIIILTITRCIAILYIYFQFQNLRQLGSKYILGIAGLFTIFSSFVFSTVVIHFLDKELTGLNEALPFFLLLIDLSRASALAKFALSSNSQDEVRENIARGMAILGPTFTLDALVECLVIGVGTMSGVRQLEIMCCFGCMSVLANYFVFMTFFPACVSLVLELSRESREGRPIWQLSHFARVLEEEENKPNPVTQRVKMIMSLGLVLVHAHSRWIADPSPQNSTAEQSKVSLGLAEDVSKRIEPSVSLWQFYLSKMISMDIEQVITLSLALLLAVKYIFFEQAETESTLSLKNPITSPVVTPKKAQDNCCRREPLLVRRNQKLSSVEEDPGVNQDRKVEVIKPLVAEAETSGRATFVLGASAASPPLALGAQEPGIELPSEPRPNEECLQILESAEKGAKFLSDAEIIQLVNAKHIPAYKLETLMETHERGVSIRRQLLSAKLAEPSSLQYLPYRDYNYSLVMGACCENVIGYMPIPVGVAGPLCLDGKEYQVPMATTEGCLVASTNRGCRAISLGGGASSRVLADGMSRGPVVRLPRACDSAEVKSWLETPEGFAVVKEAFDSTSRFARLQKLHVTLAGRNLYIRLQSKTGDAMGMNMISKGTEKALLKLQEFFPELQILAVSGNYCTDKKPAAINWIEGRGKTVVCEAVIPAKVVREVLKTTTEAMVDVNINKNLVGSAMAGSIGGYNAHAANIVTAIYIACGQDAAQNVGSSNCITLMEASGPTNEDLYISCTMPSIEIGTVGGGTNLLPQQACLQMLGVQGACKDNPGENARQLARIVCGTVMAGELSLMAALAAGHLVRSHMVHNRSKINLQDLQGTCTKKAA
# Test: HMG-CoA reductase activity in liver microsomes of treated rats (Experimental Example 6, Step 4)
# Assay type: in vivo
# Parameters: HMG-CoA reductase: unit not given here
# Settings: for HMG-CoA reductase: activity in liver microsomes of rats fed 6 weeks, CoA-SH by absorbance at 412 nm, average; for Inhibition of HMG-CoA reductase activity: liver microsomes of rats fed 6 weeks, relative to control group
# Method: In order to measure the activity of HMG-CoA reductase, the method described by Hulcher et al. (J. Lipid Res., 14, 625-641 (1973)) was employed after some modification. In this method, the concentration of the coenzyme-A (CoA-SH), which is produced when HMG-CoA is reduced to a mevalonate salt by the action of HMG-CoA reductase, is determined by spectroscopy and the activity of HMG-CoA reductase is calculated therefrom.
# 3 g of liver tissue taken from each sacrificed rat of Step 2 was washed successively with 100 ml of a cold Saline (0.15M NaCl) and 100 ml of a cold buffer solution A (0.1M triethanolamine, HCl/0.2M EDTA/2 mM dithiothreitol). The cold buffer solution A was added to the liver tissue in an amount of 2 ml per 1 g of the liver tissue and the mixture was homogenized with a homogenizer. The homogenate was centrifuged (15,000×g for 15 minutes), and then, the supernatant was ultracentrifuged (100,000×g for 60 minutes) to obtain microsomal precipitates. The precipitates thus obtained were washed with 2 mL of a cold buffer solution A and ultracentrifuged (100,000×g for 60 minutes) to obtain precipitates. The precipitates thus obtained were washed with a 1 mL of cold buffer solution A and kept in a 1.5 mL tube at −70° C.
# The reaction substrates used in the measurement of HMG-CoA reductase activity were as follows:
# i) buffer solution B: 0.1M triethanolamine, HCl/0.02M EDTA (pH7.4),
# ii) HMG-CoA solution: 150 mmoles/culture medium, and
# iii) NADPH solution: 2 mmoles/culture medium.
# The suspension (microsome) prepared in the above was mixed with the reaction substrate and the resulting mixture was placed in a centrifugation tube and reacted at 37° C. for 30 minutes. The reaction mixture was treated with 20 μl of 0.1M sodium arsenite and allowed to stand for 1 minute. Then, the mixture was reacted with 100 μl of citrate buffer solution (2M citrate/3% sodium tungstate, pH 3.5) at 37° C. for 10 minutes followed by centrifugation (25,000×g for 15 minutes) to remove protein. 1 mL of the supernatant thus obtained was transferred into a tube with a cap and 0.2 mL of 2M tris-HCl solution (pH 10.6) and 0.1 ml of 2M tris-HCl solution (pH 8.0) were added thereto to adjust the pH of the reaction to 8.0. Then, the reaction was mixed with 20 μl of DTNB buffer solution (3mM DTNB/0.1M triethanolamine/0.2M EDTA, pH 7.4) and the absorbance of the mixture was determined at 412 nm to calculate the amount of CoA-SH (activity of HMG-COA reductase). The inhibition of HMG-CoA reductase activity of the control and treated groups were calculated based on the above results.
Compound,HMG-CoA reductase,Inhibition of HMG-CoA reductase activity
"COC(=O)C(CO)NC(=O)CCc1ccc(O)c(O)c1 (stereo not drawn) [BN30063, 2-[3-(3,4-dihydroxyphenyl)propionylamino]-3-hydroxy propionic acid methyl ester]",196.11,20.09%
"CC(C)CC(NC(=O)CCc1ccc(O)c(O)c1)C(=O)O (stereo not drawn) [BN30064, 2-[3-(3,4-dihydroxyphenyl)propionylamino]-4-methyl pentanoic acid]",124.74,–
"O=C(O)CC(NC(=O)CCc1ccc(O)c(O)c1)C(=O)O (stereo not drawn) [BN30067, 2-[3-(3,4-dihydroxyphenyl)propionylamino]-succinic acid]",136.15,–
"CC[C@H](C)C(=O)O[C@H]1C[C@@H](C)C=C2C=C[C@H](C)[C@H](CC[C@@H]3C[C@@H](O)CC(=O)O3)[C@H]21 [Lovastatin, reference compound]",173.25,29.40%

# Source: patent publication US7223793B2, “Phenolic acid derivatives and composition for preventing or treating blood lipid level-related diseases comprising the same” (Bionutrigen Co., Ltd., priority 2001, dated 2007)
